Data from patent publication US9499550B2 (BRISTOL-MYERS SQUIBB COMPANY, priority 2012, dated 2016).
pEC50: −log10 of the molar value. Where two headings read alike, the source gives them in different places.

Tests used:
[1] = system: HCV genotype 1a (H77 strain) replicon in HUH-7 cells; assay: HCV replicon luciferase reporter assay, genotype 1a; format: cell-based; details: 3 days incubation
Procedure, shortened: (§1)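 Replicon inhibition for both genotypes was measured as Renilla luciferase signal (EnduRen, 7.5 μM final, 2 h) after 3-day, 37° C exposure of replicon-bearing HUH-7 cells in 4% FCS DMEM, 0.5% DMSO. The 1b construct carries S1179I; the 1a H77 construct carries P1496L and S2204I. Twenty-point, 3-fold dilutions were fitted four-parametrically for EC50, and CC50 was taken from multiplexed Cell Titer-Blue.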

[2] = system: HCV genotype 1b (Con1) replicon in HUH-7 cells; assay: HCV replicon luciferase reporter assay, genotype 1b; format: cell-based; details: 3 days incubation
Procedure, shortened: as §1

[3] = Hepatitis C virus, Huh-7, 72 h, HCV genotype 1a replicon luciferase assay, range class, read-out: LE_1a (EC50, range)
[4] = Hepatitis C virus, Huh-7, 72 h, HCV genotype 1b replicon luciferase assay, range class, read-out: LE_1b (EC50, range)
[5] = Hepatitis C virus, GETYPE1A, Huh-7, 72 h, HCV genotype 1a replicon luciferase, read-out: LE_1a (EC50, range)
[6] = Hepatitis C virus, GETYPE1B, Huh-7, 72 h, HCV genotype 1b replicon luciferase, read-out: LE_1b (EC50, range)
[7] = Hepatitis C virus, Huh-7, 72 h, HCV genotype 1a replicon luciferase, read-out: LE_1a (EC50)
[8] = Hepatitis C virus, Huh-7, 72 h, HCV genotype 1a replicon luciferase, read-out: LE_1a (EC50, range)
[9] = Hepatitis C virus, Huh-7, 72 h, HCV genotype 1b replicon luciferase, read-out: LE_1b (EC50)
[10] = Hepatitis C virus, Huh-7, 72 h, HCV genotype 1b replicon luciferase, read-out: LE_1b (EC50, range)

| Structure (SMILES) | pEC50 [1, 3] | pEC50 [2, 4] | pEC50 [1, 8] | pEC50 [2, 10] | also measured |
| --- | --- | --- | --- | --- | --- |
| C[C@@H]1CC/C=C\[C@@H]2C[C@@]2(C(=O)NS(=O)(=O)C2CC2)NC(=O)[C@@H]2C[C@@H](Oc3ncc(OCC(F)F)c4ccccc34)CN2C(=O)[C@@H](NC(=O)O[C@H](C)C(F)(F)F)[C@H](C)C1 [Compound 1034, (R)-1,1,1-trifluoropropan-2-yl((2R,6S,7R,9R,13aS,14aR,16aS,Z)-14a-((cyclopropylsulfonyl)carbamoyl)-2-((4-(2,2-difluoroethoxyl)isoquinolin-1-yl)oxy)-7,9-dimethyl-5,16-dioxo-1,2,3,5,6,7,8,9,10,11,13a,14,14a,15,16,16a-hexadecahydrocyclopropa[e]pyrrolo[1,2-a][1,4]diazacyclopentadecin-6-yl)carbamate] | > 8.26 | > 8.26 |  |  |  |
| COc1ccc2c(O[C@@H]3C[C@H]4C(=O)N[C@]5(C(=O)NS(=O)(=O)C6(CF)CC6)C[C@H]5/C=C\CC[C@@H](C)C[C@@H](C)[C@H](NC(=O)OC(C)(C)C(F)(F)F)C(=O)N4C3)ncc(OC)c2c1 [Compound 4154] |  |  |  |  | pEC50 [1, 5]: > 8.26; pEC50 [2, 6]: > 8.26 |
| C[C@@H]1CC/C=C\[C@@H]2C[C@@]2(C(=O)NS(=O)(=O)C2CC2)NC(=O)[C@@H]2C[C@@H](Oc3nccc4c5c(ccc34)N(C)CCO5)CN2C(=O)[C@@H](NC(=O)c2ccc(N(C)C)cc2)[C@H](C)C1 [Compound 5290, (2R,6S,7R,9R,13aS,14aR,16aS,Z)—N-(cyclopropylsulfonyl)-6-(4-(dimethylamino)benzamido)-7,9-dimethyl-2-((4-methyl-3,4-dihydro-2H-[1,4]oxazino[2,3-f]isoquinolin-7-yl)oxy)-5,16-dioxo-1,2,3,5,6,7,8,9,10,11,13a,14,14a,15,16,16a-hexadecahydrocyclopropa[e]pyrrolo[1,2-a][1,4]diazacyclopentadecine-14a-carboxamide] |  |  | > 8.26 | > 8.26 | pEC50 [1, 7]: 8.90; pEC50 [2, 9]: 9.19 |
| COc1cnc(O[C@@H]2C[C@H]3C(=O)N[C@]4(C(=O)NS(=O)(=O)C5(CF)CC5)C[C@H]4/C=C\CC[C@H](C)C[C@@H](C)[C@H](NC(=O)OC(C)(C)C)C(=O)N3C2)c2ccc(N(C)C)cc12 [Compound 3141, tert-butyl ((2R,6S,7R,9S,13aS,14aR,16aS,Z)-2-((6-(dimethylamino)-4-methoxyisoquinolin-1-yl)oxy)-14a-(((1-(fluoromethyl)cyclopropyl)sulfonyl)carbamoyl)-7,9-dimethyl-5,16-dioxo-1,2,3,5,6,7,8,9,10,11,13a,14,14a,15,16,16a-hexadecahydrocyclopropa[e]pyrrolo[1,2-a][1,4]diazacyclopentadecin-6-yl)carbamate] | > 8.26 | > 8.26 |  |  |  |
| COc1cc(F)cc2c(O[C@@H]3C[C@H]4C(=O)N[C@]5(C(=O)NS(=O)(=O)C6(CF)CC6)C[C@H]5/C=C\CC[C@@H](C)C[C@@H](C)[C@H](NC(=O)OC(C)(C)C(C)(F)F)C(=O)N4C3)nccc12 [Compound 3180, 3,3-difluoro-2-methylbutan-2-yl((2R,6S,7R,9R,13aS,14aR,16aS,Z)-2-((7-fluoro-5-methoxyisoquinolin-1-yl)oxy)-14a-(((1-(fluoromethyl)cyclopropyl)sulfonyl)carbamoyl)-7,9-dimethyl-5,16-dioxo-1,2,3,5,6,7,8,9,10,11,13a,14,14a,15,16,16a-hexadecahydrocyclopropa[e]pyrrolo[1,2-a][1,4]diazacyclopentadecin-6-yl)carbamate] | > 8.26 | > 8.26 |  |  |  |
| COc1ccc2c(O[C@@H]3C[C@H]4C(=O)N[C@]5(C(=O)NS(=O)(=O)C6CC6)C[C@H]5/C=C\CC[C@@H](C)C[C@@H](C)[C@H](NC(=O)OC(C)(C)C)C(=O)N4C3)nc(-c3ccc(OC(C)C)c(F)c3)cc2c1 [Compound 3060, tert-butyl ((2R,6S,7R,9R,13aS,14aR,16aS,Z)-14a-((cyclopropylsulfonyl)carbamoyl)-2-((3-(3-fluoro-4-isopropoxyphenyl)-6-methoxyisoquinolin-1-yl)oxy)-7,9-dimethyl-5,16-dioxo-1,2,3,5,6,7,8,9,10,11,13a,14,14a,15,16,16a-hexadecahydrocyclopropa[e]pyrrolo[1,2-a][1,4]diazacyclopentadecin-6-yl)carbamate] | > 8.26 | > 8.26 |  |  |  |
| CC[C@@H]1C[C@H](C)CC/C=C\[C@@H]2C[C@@]2(C(=O)NS(=O)(=O)C2CC2)NC(=O)[C@@H]2C[C@@H](Oc3cc(OC)nc4cc(OC)c(F)cc34)CN2C(=O)[C@H]1NC(=O)OC(C)(C)C(F)(F)F [Compound 1201] |  |  |  |  | pEC50 [1, 5]: 8.30 to 9.00; pEC50 [2, 6]: 8.30 to 9.00 |
| CC[C@@H]1C[C@H](C)CC/C=C\[C@@H]2C[C@@]2(C(=O)NS(=O)(=O)C2CC2)NC(=O)[C@@H]2C[C@@H](Oc3nc(OC)cc4ccccc34)CN2C(=O)[C@H]1NC(=O)OC(C)(C)C(F)(F)F [Compound 6003, 1,1,1-trifluoro-2-methylpropan-2-yl((2R,6S,7R,9R,13aS,14aR,16aS,Z)-14a-((cyclopropylsulfonyl)carbamoyl)-7-ethyl-2-((3-methoxyisoquinolin-1-yl)oxy)-9-methyl-5,16-dioxo-1,2,3,5,6,7,8,9,10,11,13a,14,14a,15,16,16a-hexadecahydrocyclopropa[e]pyrrolo[1,2-a][1,4]diazacyclopentadecin-6-yl)carbamate] |  |  | > 8.26 | > 8.26 | pEC50 [1, 7]: 8.88; pEC50 [2, 9]: 9.66 |
| COc1cc2cc(-c3ccc(OC(C)C)cc3)nc(O[C@@H]3C[C@H]4C(=O)N[C@]5(C(=O)NS(=O)(=O)C6CC6)C[C@H]5/C=C\CC[C@@H](C)C[C@@H](C)[C@H](NC(=O)OC(C)(C)C(F)(F)F)C(=O)N4C3)c2cc1F [Compound 3190, 1,1,1-trifluoro-2-methylpropan-2-yl((2R,6S,7R,9R,13aS,14aR,16aS,Z)-14a-((cyclopropylsulfonyl)carbamoyl)-2-((7-fluoro-3-(4-isopropoxyphenyl)-6-methoxyisoquinolin-1-yl)oxy)-7,9-dimethyl-5,16-dioxo-1,2,3,5,6,7,8,9,10,11,13a,14,14a,15,16,16a-hexadecahydrocyclopropa[e]pyrrolo[1,2-a][1,4]diazacyclopentadecin-6-yl)carbamate] |  |  | > 8.26 | > 8.26 |  |
| C[C@H]1CC/C=C\[C@@H]2C[C@@]2(C(=O)NS(=O)(=O)C2(CF)CC2)NC(=O)[C@@H]2C[C@@H](Oc3nc4c(c5ccccc35)OCCC4)CN2C(=O)[C@@H](NC(=O)OC(C)(C)C(C)(F)F)[C@H](C)C1 [Compound 6039, 3,3-difluoro-2-methylbutan-2-yl((2R,6S,7R,9S,13aS,14aR,16aS,Z)-2-((3,4-dihydro-2H-pyrano[3,2-c]isoquinolin-6-yl)oxy)-14a-(((1-(fluoromethyl)cyclopropyl)sulfonyl)carbamoyl)-7,9-dimethyl-5,16-dioxo-1,2,3,5,6,7,8,9,10,11,13a,14,14a,15,16,16a-hexadecahydrocyclopropa[e]pyrrolo[1,2-a][1,4]diazacyclopentadecin-6-yl)carbamate] |  |  |  |  | pEC50 ([1]; HCV genotype 1a replicon luciferase, read-out: LE_1a (EC50, range)): 7.46 to 8.30; pEC50 ([2]; HCV genotype 1b replicon luciferase, read-out: LE_1b (EC50, range)): 7.46 to 8.30 |
| CCC(CC)(OC(=O)N[C@@H]1C(=O)N2C[C@H](Oc3nccc4c5c(ccc34)OCCO5)C[C@H]2C(=O)N[C@]2(C(=O)NS(=O)(=O)C3CC3)C[C@H]2/C=C\CC[C@H](C)C[C@H]1C)C(F)(F)F [Compound 5261, 3-(trifluoromethyl)pentan-3-yl ((2R,6S,7R,9S,13aS,14aR,16aS,Z)-14a-((cyclopropylsulfonyl)carbamoyl)-2-((2,3-dihydro-[1,4]dioxino[2,3-f]isoquinolin-7-yl)oxy)-7,9-dimethyl-5,16-dioxo-1,2,3,5,6,7,8,9,10,11,13a,14,14a,15,16,16a-hexadecahydrocyclopropa[e]pyrrolo[1,2-a][1,4]diazacyclopentadecin-6-yl)carbamate] |  |  | 6.99 to 8.32 | > 8.26 | pEC50 [1, 7]: 7.85; pEC50 [2, 9]: 8.66 |
| COc1ccc2c(O[C@@H]3C[C@H]4C(=O)N[C@]5(C(=O)NS(=O)(=O)C6(C)CC6)C[C@H]5/C=C\CC[C@@H](C)C[C@@H](C)[C@H](NC(=O)OC(C)(C)C)C(=O)N4C3)nc(OC(C)C)cc2c1 [Compound 3196, tert-butyl ((2R,6S,7R,9R,13aS,14aR,16aS,Z)-2-((3-isopropoxy-6-methoxyisoquinolin-1-yl)oxy)-7,9-dimethyl-14a-(((1-methylcyclopropyl)sulfonyl)carbamoyl)-5,16-dioxo-1,2,3,5,6,7,8,9,10,11,13a,14,14a,15,16,16a-hexadecahydrocyclopropa[e]pyrrolo[1,2-a][1,4]diazacyclopentadecin-6-yl)carbamate] |  |  | 9.00 to 9.29 | 9.30 to 10.00 |  |
| COc1cc2ccnc(O[C@@H]3C[C@H]4C(=O)N[C@]5(C(=O)NS(=O)(=O)C6(CF)CC6)C[C@H]5/C=C\CC[C@@H](C)C[C@@H](C)[C@H](NC(=O)OC(C)(C)C(F)(F)F)C(=O)N4C3)c2cc1OC [Compound 5381, 1,1,1-trifluoro-2-methylpropan-2-yl((2R,6S,7R,9R,13aS,14aR,16aS,Z)-2-((6,7-dimethoxyisoquinolin-1-yl)oxy)-14a-(((1-(fluoromethyl)cyclopropyl)sulfonyl)carbamoyl)-7,9-dimethyl-5,16-dioxo-1,2,3,5,6,7,8,9,10,11,13a,14,14a,15,16,16a-hexadecahydrocyclopropa[e]pyrrolo[1,2-a][1,4]diazacyclopentadecin-6-yl)carbamate] |  |  | 8.30 to 9.00 | 8.30 to 9.00 |  |
